“And” between values parts separate entries of the source, which are not always exact repeats. Identical values can stand only once.
Conditions: Liquid, Closed cell (Static) method

COC [dimethyl ether]
Conditions | vapor or sublimation pressure
233.13 K | 54.61 kPa
238.13 K | 68.49 kPa
243.16 K | 85.57 kPa
248.15 K | 105.59 kPa
253.15 K | 129.42 kPa
258.16 K | 157.53 kPa
263.16 K | 190.44 kPa
268.16 K | 228.48 kPa
273.15 K | 272.17 kPa
278.14 K | 321.87 kPa
283.16 K | 378.66 kPa
288.17 K | 443.57 kPa
293.16 K | 515.53 kPa
298.17 K | 596.21 kPa
303.16 K | 687.37 kPa
305.16 K | 726.26 kPa
308.16 K | 787.07 kPa
313.16 K | 897.59 kPa
316.15 K | 968.55 kPa
318.16 K | 1018.9 kPa
323.15 K | 1152.3 kPa
328.15 K | 1298.2 kPa
333.16 K | 1457.5 kPa and 1457.8 kPa
338.15 K | 1631 kPa
343.15 K | 1818.8 kPa
348.15 K | 2022.5 kPa
353.15 K | 2242.7 kPa
353.16 K | 2243.1 kPa
358.14 K | 2479.9 kPa
363.15 K | 2735.7 kPa
368.16 K | 3010.8 kPa
373.15 K | 3305.7 kPa
378.15 K | 3622.6 kPa
383.14 K | 3962.2 kPa
388.15 K | 4331.5 kPa
393.16 K | 4725 kPa
398.16 K | 5146.8 kPa
400.38 K | 5355.8 kPa
